Test results: paper PMC4887073, “Investigating the Role of Loop C Hydrophilic Residue ‘T244’ in the Binding Site of ρ1 GABAC Receptors via Site Mutation and Partial Agonism” (PLoS ONE, 2016)
Where two headings read alike, the source gives them in different places.

Assays:
[1] = target: T1, ρ1 GABAC T244A mutant receptors (Homo sapiens, UniProt P24046, T265A); assay: Two-electrode voltage-clamp electrophysiology, Xenopus oocytes expressing ρ1 T244A mutant receptors; format: cell-based
T1 construct: expressed in transfected cells; host or cells: Xenopus laevis oocytes injected with cRNA (raised to 300 ng/μl)
Method: (§1) Pairs of the complementary mutagenic oligonucleotide primers were first designed to introduce single point mutations at human ρ1 GABAC subunit using UniProt. Primers were made by life technologies (Life Technologies^TM Australia Pty Ltd).
(§2) Site-directed mutagenesis was performed using QuikChange II site-directed mutagenesis kit as described by the manufacturer (Stratagene).
(§3) ρ1 GABAC WT and mutant plasmids DNA were linearized by incubation with Xba1. ρ1 WT and mutant cRNA were synthesized using the T7 Transcription mMESSAGE mMACHINE Kit (Ambion, Austin, TX, USA) following the procedure described by the manufacture. The quantity and quality of synthesized CRNA was determined by absorbance at 260–280 nm using Nanodrop Spectrophotometer (Thermo Scientific, Wilmington, DE, USA). The purity of synthesized cRNA was confirmed by agarose gel electrophoresis (0.9%) using the GelDoc 1000 (Bio-Rad Laboratories, Hercules, CA USA).
(§4) A microprocessor-controlled micropipette puller (PUL-100, World Precision Instruments, Inc. FL, USA) was used to make micropipettes then RNA pulled up into the micropipette by a positive-displacement using micro-injector (Nanoliter micro-injector, World Precision Instruments, Inc. FL, USA). Oocytes were sorted and healthy ones were injected with 35–50 ng of ρ cRNA unless otherwise mentioned.
(§5) The injected oocytes were incubated for between two and four days after injection with desired RNA. Two-electrode voltage clamp instrument; Geneclamp 500 amplifier (Axon Instrument, Sydney, NSW, Australia) and Chart version 5.5.6 was used to measure the various activities at the receptors expressed by these oocytes. The recording microelectrodes were prepared by pulling using PUL-100 micropipette puller (World precision Instruments, Inc. FL, USA) and filled with 3 M KCl.
(§6) Dose response curves were generated using GraphPad PRISM 5.02 (GraphPad Software San Diego, CA).

[2] = target: T2, ρ1 GABAC T244C mutant receptors (Homo sapiens, UniProt P24046, T265C); assay: Two-electrode voltage-clamp electrophysiology, Xenopus oocytes expressing ρ1 T244C mutant receptors; format: cell-based
T2 construct: expressed in transfected cells; host or cells: Xenopus laevis oocytes injected with cRNA (raised to 300 ng/μl)
Method: as §1, §2, §3, §4, §5
Current responses were normalized to the maximum GABA-activated current (or other ligand which is stated as required) and expressed as a percentage, which was fitted by least squares to Hill equation (Eq 1). Dose response curves were generated using GraphPad PRISM 5.02 (GraphPad Software San Diego, CA).
GABA was first tested on all mutant receptors in order to determine the functionality of these receptors.

[3] = target: T3, ρ1 GABAC T244S mutant receptors (Homo sapiens, UniProt P24046, T265S); assay: Two-electrode voltage-clamp electrophysiology, Xenopus oocytes expressing ρ1 T244S mutant receptors; format: cell-based; settings: for effect of T244S mutation on antagonist potency: ρ1 T244S compared to WT
T3 construct: expressed in transfected cells; host or cells: Xenopus laevis oocytes injected with cRNA
Method: as §1, §2, §3, §4, §5, §6
(§7) The inhibitory concentration curves were generated using GraphPad PRISM 5.02 and IC50 values were calculated using Eq 2.

[4] = target: T4, human ρ1 GABAC WT receptors (Homo sapiens, UniProt P24046); assay: Two-electrode voltage-clamp electrophysiology, Xenopus oocytes expressing ρ1 GABAC WT receptors; format: cell-based; settings: for Emax: read-out: efficacy relative to the GABA maximal response, ligand applied alone; for additive effect on GABA EC50 response (GABA EC50 response set to 100%): co-applied with GABA EC50
T4 construct: expressed in transfected cells; host or cells: Xenopus laevis oocytes injected with cRNA
Method: Human ρ1 cDNA subcloned into pcDNA1.1 (Invitrogen, San Diego, CA, USA) was kindly provided by Dr. George Uh1 (National Institute for Drug Abuse, Baltimore, MD, USA).
as §3, §4, §5, §6, §7

[5] = target: T3, ρ1 GABAC T244S mutant receptors; settings: agonist effects eliminated; cited from earlier work
[6] = target: T4, human ρ1 GABAC WT receptors; set-up: method as in PMID 8386310; settings: agonist applied alone; cited from earlier work
[7] = high GABA concentrations, 300 ng/μl RNA
[8] = read-out: efficacy relative to the GABA maximal response, ρ1 T244S, ligand applied alone

T1 sequence (P24046 22-479 T265A): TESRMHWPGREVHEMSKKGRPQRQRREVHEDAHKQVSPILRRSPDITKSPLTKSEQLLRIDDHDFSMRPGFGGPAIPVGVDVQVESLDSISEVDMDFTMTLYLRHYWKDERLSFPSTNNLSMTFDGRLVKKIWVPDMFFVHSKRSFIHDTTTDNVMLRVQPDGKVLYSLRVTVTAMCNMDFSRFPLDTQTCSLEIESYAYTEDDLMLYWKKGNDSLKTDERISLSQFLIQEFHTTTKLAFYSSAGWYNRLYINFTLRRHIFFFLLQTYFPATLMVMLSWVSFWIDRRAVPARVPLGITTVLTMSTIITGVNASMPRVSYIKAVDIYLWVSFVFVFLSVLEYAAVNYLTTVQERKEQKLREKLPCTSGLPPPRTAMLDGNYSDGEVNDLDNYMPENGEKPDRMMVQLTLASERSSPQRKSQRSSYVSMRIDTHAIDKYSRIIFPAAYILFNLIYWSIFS
T2 sequence (P24046 22-479 T265C): as the sequence (P24046 22-479 T265A) above, with A244C counted along it
T4 sequence (P24046 22-479): as the sequence (P24046 22-479 T265A) above, with A244T counted along it
T3 sequence (P24046 22-479 T265S): as the sequence (P24046 22-479 T265A) above, with A244S counted along it

Q: What does the source list for `NCCCC(=O)O` [GABA, γ-aminobutyric acid]?
A: effect on β-alanine response ([1]; 30 mM co-applied with 30 mM β-alanine): moderately inhibits; sensitivity of receptors to GABA ([1]; GABA 30mM, 50–100 ng/μl RNA): non-functional or insensitive; sensitivity of receptors to GABA [1, 7]: weakly responsive; response ([2]; 30 mM, five times the RNA normally injected): very weak response; sensitivity of receptors to GABA ([2]; GABA 30mM, 50–100 ng/μl RNA): non-functional or insensitive; sensitivity of receptors to GABA [2, 7]: weakly responsive

Q: For `CP(=O)(O)C1=CCNCC1` [TPMPA], which “effect when applied alone” value [1] is on record?
A: no effect

Q: And the “effect on β-alanine response” value ([1]; 1 mM against β-alanine response (30 mM))?
A: weakly antagonizes

Q: And the “effect of T244S mutation on antagonist potency” value [3]?
A: no effect

Q: What about the IC50 ([4]; ρ1 WT) of the same compound?
A: 2.3 µM

Q: With `NCCC(=O)O` [β-alanine] as the compound, how does the EC50 ([1]; 300 ng/μl mutant RNA injected) read?
A: 1500 µM

Q: And the “efficacy compared with GABA” value ([1]; 30 mM concentration)?
A: approximately two times more efficacious than GABA

Q: And the IC50 [3]?
A: 1000 µM

Q: And the Emax ([3]; read-out: maximum efficacy relative to the GABA maximal response at 30 mM, ρ1 T244S, ligand applied alone)?
A: 5%

Q: And the “weak additive effect on GABA EC50 response” value ([3]; xenopus oocytes)?
A: 115%

Q: And the “fold increase of IC50” value ([3]; ρ1 T244S compared to ρ1 WT, against GABA EC50)?
A: 8 fold

Q: What about the “inhibition of GABA EC50” value ([3]; ρ1 T244S, concentrations greater than 100 μM) of the same compound?
A: 60%

Q: And the IC50 [4]?
A: 120 µM

Q: What about the “weak additive effect on GABA EC50 response” value ([4]; xenopus oocytes) of the same compound?
A: 125%

Q: What about the agonist character ([4]; ρ1 WT, applied alone) of the same compound?
A: weak partial agonists

Q: And the “inhibition of GABA EC50” value ([4]; ρ1 WT, concentrations greater than 100 μM)?
A: 60%

Q: With `Oc1noc2c1CCNC2` [THIP, 4,5,6,7-tetrahydroisoxazolo[5,4-c]pyridin-3-ol] as the compound, how does the “effect of T244S mutation on antagonist potency” value [3] read?
A: no effect

Q: Which “mode of action at mutant receptors” value [5] does the source give for `O=C(O)Cc1c[nH]cn1` [imidazole-4-acetic acid] here?
A: acted only as competitive antagonists

Q: With `O=C(O)C1=CCNCC1` [isoguvacine] as the compound, how does the EC50 [6] read?
A: 200 µM

Q: And the IC50 [3]?
A: 25.3 µM

Q: What about the Emax ([4]; ρ1 WT) of the same compound?
A: 45%

Q: What about the “additive effect on GABA EC50 response (GABA EC50 response set to 100%)” value ([4]; ρ1 WT) of the same compound?
A: 135%

Q: What does the source list for `NCc1cc(=O)[nH]o1` [muscimol]?
A: efficacy compared with GABA [1]: less efficacious than GABA; mode of action at mutant receptors [5]: acted only as competitive antagonists

Q: Which Emax [3, 8] does the source give for `NC/C=C\C(=O)O` [CACA] here?
A: 2%

Q: What about the “magnitude of response, % of GABA IMAX” value ([3]; ρ1 T244S, 300 μM applied alone) of the same compound?
A: less than 2%

Q: And the agonist activity ([3]; ρ1 T244S, applied alone, minimal response at 300 μM)?
A: almost inactive

Q: And the “enhancement of the GABA EC50 effect” value ([3]; ρ1 T244S, co-applied with GABA EC50, at 100 μM ligand)?
A: ~20%

Q: What about the EC50 ([4]; agonist applied alone, ρ1 WT) of the same compound?
A: 95 µM

Q: And the Emax ([4]; ρ1 WT)?
A: 60%

Q: And the “additive effect, % of GABA EC50 efficacy” value ([4]; ρ1 WT, co-applied with GABA EC50, at 100 μM ligand)?
A: 150%

Q: Which results are given for `NCCCCC(=O)O` [5-aminovaleric acid]?
A: efficacy compared with GABA [1]: less efficacious than GABA; IC50 [3]: 17 µM; IC50 [4]: 37 µM; agonist character ([4]; ρ1 WT, applied alone): weak partial agonists

Q: Which “efficacy compared with GABA” value [1] does the source give for `NC/C=C/C(=O)O` [TACA, trans-aminocrotonic acid] here?
A: less efficacious than GABA

Q: What about the EC50 ([3]; agonist applied alone, ρ1 T244S) of the same compound?
A: 14 µM

Q: What about the Emax [3, 8] of the same compound?
A: 110%

Q: What about the “fold decrease in potency/activity” value ([3]; ρ1 T244S compared to ρ1 WT) of the same compound?
A: 25 fold

Q: And the Emax ([4]; ρ1 WT)?
A: 95%

Q: What does the source list for `CS(=O)(=O)SCCN` [MTSEA, 2-aminoethylmethane thiosulfonate]?
A: potency and efficacy compared with GABA ([2]; reversible responses): greater potency and efficacy than GABA; activation ([4]; ρ1 WT, applied alone): very weak efficacy and potency; effect on GABA EC50 response ([4]; ρ1 WT, co-applied with GABA EC50, concentrations below 100 μM): weak additive effects; effect on GABA EC50 response ([4]; ρ1 WT, co-applied with GABA EC50, concentrations of 100 μM and above): weakly antagonizes

Q: Which “efficacy compared with GABA” value [1] does the source give for `NCC(=O)O` [glycine] here?
A: less efficacious than GABA

Q: What about the “direct activation of receptors” value ([3]; ρ1 T244S, at mM concentrations, applied alone) of the same compound?
A: 2%

Q: And the “additive effect on GABA EC50 response (GABA EC50 response set to 100%)” value ([3]; ρ1 T244S, co-applied with GABA EC50)?
A: 145%

Q: And the “maximum efficacy relative to the GABA maximal response at 30 mM” value ([3]; ρ1 T244S, ligand applied alone)?
A: 8%

Q: What about the agonist character ([4]; ρ1 WT, applied alone) of the same compound?
A: weak partial agonists

Q: What about the “direct activation of receptors” value ([4]; ρ1 WT, at mM concentrations, applied alone) of the same compound?
A: 25%

Q: And the “additive effect on GABA EC50 response (GABA EC50 response set to 100%)” value ([4]; ρ1 WT)?
A: 180%
